Two compounds from PMC6152192, “Novel Methylselenoesters as Antiproliferative Agents” (Molecules : A Journal of Synthetic Chemistry and Natural …, 2017) can be followed below.

Each structure is given as a SMILES string. Where two headings read alike, the source gives them in different places.

Data set [1] is described as follows: Methylselenol (CH3SeH) release by hydrolysis, quantified with DTNB (Ellman's reagent). Type of data set: physicochemical. The settings on record: 100 μM compound, 100 μM DTNB, phosphate buffer pH 8, 24 h. The source says: The new compounds were designed as CH3SeH precursors. The chemical features of the selenoester functional group facilitate a nucleophilic attack (i.e., with water) which would deliver the CH3SeH residue. In order to verify if CH3SeH could be released from the molecules by hydrolysis and if the rate differed among the compounds, the reaction of CH3SeH with 5,5′-dithiobis(2-nitrobenzoic acid) (DTNB or Ellman’s reagent) in aqueous environment was monitored. Briefly, when the disulfide bridge of DTNB reacts with thiols or selenols, 2-nitro-5-thiobenzoate (TNB^2−) is released and the mixed disulfide or selenylsulfide is formed. Each released CH3SeH produces one yellow TNB^2− species, whose absorbance can be quantified at 412 nm (Figure 2A).
A stock solution of the compounds was prepared in anhydrous DMSO (10 mM). The compounds were placed in a 96-well plate in a final concentration of 100 μM. Reaction started after adding 200 μL of an aqueous 100 mM Na2HPO4 buffer (1 mM EDTA, pH = 8), containing 100 μM of DTNB from a freshly prepared 10 mM ethanolic stock, which were added just before starting the reaction. The DTNB concentration was quantified with a cysteine standard curve ([…]). Blanks for the compounds in the absence of DTNB were also included as well as a blank to measure the slow but spontaneous hydrolysis of DTNB, which was further subtracted from all the values. Absorbance was read at 412 nm in a FLUOstar Omega microplate reader (BMG LabTech, Ortenberg, Germany). Results represent means of triplicate values ± SD.
Figure 2 CH3SeH release rates are dependent on the chemical features of the molecule. Released CH3SeH was quantified through reaction with Ellman’s reagent (DTNB). (A) Proposed reaction between CH3SeH and DTNB; (B) Quantification of TNB^2− at different times. The compounds were tested at 100 μM in 200 μL of 100 mM phosphate buffer (1 mM EDTA, pH = 8). DTNB concentration was also 100 μM. Absorbance was followed at 412 nm over 72 h. A cysteine standard curve (7.5–150 μM) was used to calculate the concentration of TNB^2− over time. Compounds showing less than 15% hydrolysis at 72 h are not included, except for compound 5 as example. Error bars indicate SD of triplicates.

In data set [2] the test system is PC-3 (prostate adenocarcinoma). The experiment in a line: MTT viability assay, PC-3. Type of data set: cell-based. How it is done: (§1) The novel compounds were tested against a panel of different cancer lines: PC-3 (prostate adenocarcinoma), MCF7 (mammary adenocarcinoma), HTB-54 (lung carcinoma), K-562 (chronic myelogenous leukemia) and HT-29 (colorectal adenocarcinoma). Two non-malignant cell lines, BEAS-2B (bronchial epithelial) and 184B5 (mammary epithelial) were also included to evaluate the toxicity of the novel synthesized compounds. The antiproliferative activity was measured with the [3-(4,5-dimethylthiazol-2-yl)-2,5-diphenyltetrazolium bromide] (MTT) assay after 72 h treatment. Six concentrations ranging from 0.1 to 100 μM were tested. MSA is largely known as the main CH3SeH putative precursor and was therefore included as positive control. The following parameters were calculated: GI50 (concentration which reduces the growth by 50%), TGI (concentration completely inhibiting growth) and LC50 (concentration that kills 50% of the cells).
(§2) All cells were purchased from the American Type Culture Collection (ATCC, Barcelona, Spain). HT-29 (colorectal adenocarcinoma), HTB-54 (grade III lung carcinoma), MCF7 (mammary adenocarcinoma), PC-3 (grade IV prostate adenocarcinoma) and K-562 (chronic myelogenous leukemia) were cultured in RPMI (Gibco, Madrid, Spain), 10% FBS (Gibco), 100 units/mL penicillin and 100 μg/mL streptomycin (Gibco). BEAS-2B cell line (normal epithelial lung) was cultured in DMEM (Gibco), 10% FBS, 100 units/mL penicillin and 100 μg/mL streptomycin. 184B5 (normal mammary gland) cell line was cultured in DMEM:F12 supplemented with 5% FBS, 1 × ITS (Lonza, Barcelona, Spain), 100 nM hydrocortisone (Sigma-Aldrich), 2 mM sodium pyruvate (Lonza), 20 ng/mL EGF (Sigma-Aldrich), 0.3 nM trans-retinoic acid (Sigma-Aldrich), 100 units/mL penicillin and 100 µg/mL streptomycin. Cells were cultured at 37 °C under 5% CO2.
(§3) Cell viability after treatment was assessed by the well-known 3-(4,5-dimethyl-thiazol-2-yl)-2,5-diphenyltetrazolium bromide (MTT, Sigma-Aldrich) assay. Briefly, 10,000 cells were seeded in 96-well plates, treated and incubated for 72 h. Dilutions of the compounds in cell medium were freshly prepared from a 0.01 M stock in DMSO. After treatment, 50 μL of MTT solution in PBS (2 mg/mL) were added and cells were incubated for 4 h. Medium was removed and 150 μL of DMSO was added to dissolve the formed formazan crystals. Absorbance was read at 550 nm in a microplate absorbance reader (Sunrise, Tecan, Männedorf, Switzerland).
Background: Formazan colour is commonly taken as a measure of viable cells.

Data set [3] concerns MCF7 (mammary adenocarcinoma). The data set is described as follows: MTT viability assay, MCF7. Type of data set: cell-based. To be noted: MCF7, 72 h. The procedure:
as §1, §2, §3

Data set [4] is described as follows: MTT viability assay, 184B5. Type of data set: cell-based. The settings on record: human. How it is done:
as §1, §2, §3

For data set [5], the system named is 184B5 (non-malignant mammary epithelium). The data set is described as follows: MTT viability assay, 184B5. Type of data set: cell-based. To be noted: 184B5 non-malignant, 72 h, MTT. How it is done: as §1, §2, §3
For data set [6], the system named is K-562 (chronic myelogenous leukemia). The experiment in a line: MTT viability assay, K-562. Format: cell-based. How it is done: as §1, §2, §3
Data set [7] relates to HT-29 (colorectal adenocarcinoma). The experiment in a line: MTT viability assay, HT-29. Format: cell-based. To be noted: HT-29, 72 h. How it is done: as §1, §2, §3
The test system of data set [8] is HTB-54 (lung carcinoma). The data set is described as follows: MTT viability assay, HTB-54. Format: cell-based. To be noted: HTB-54, 72 h. The procedure: as §1, §2, §3
Data set [9] in a line: MTT viability assay, BEAS-2B. Format: cell-based. The settings on record: human. How it is done:
as §1, §2, §3

The subject of data set [10] is BEAS-2B (non-malignant bronchial epithelial). The experiment in a line: MTT viability assay, BEAS-2B. The settings on record: BEAS-2B non-malignant, 72 h, MTT. Format: cell-based. The procedure:
as §1, §2, §3

For data set [11], the system named is thioredoxin reductase (TrxR1). The data set is described as follows: Thioredoxin reductase activity assay (NADPH consumption). Type of data set: biochemical. The settings on record: 100 nM TrxR1, 227 μM NADPH, TE buffer pH 8, 45 min. The procedure:
The assay was performed as previously described, but in a final volume of 200 μL in a 96-well plate. Reaction started after addition of 133 μL of TE buffer (20 mM Tris, 2 mM EDTA, pH = 8), 0.227 mM NADPH (freshly prepared) to different concentrations of compounds solved in DMSO and TrxR1 (final concentration 100 nM). NADPH consumption was followed measuring absorbance decrease at 340 nm in a VersaMax microplate reader (Molecular Devices, Sunnyvale, CA, USA) over 45 min. A background sample with DMSO without the compounds was included and subtracted from the values.
(§4) Figure 7 Compounds 5 and 15 are substrates for thioredoxin reductase but not for the glutathione-glutaredoxin system. (A) NADPH consumption indicating reduction of compounds 5, 15 or MSA as control by thioredoxin reductase. The reaction mixture contained 100 nM TrxR1, 227 μM NADPH and the corresponding amount of compound in TE buffer (20 mM Tris, 2 mM EDTA pH = 8); (B) NADPH consumption indicating reduction of MSA by glutathione in the presence or absence of glutaredoxin. The reaction mixture contained the corresponding amount of compound, 0.1 M Tris, 2 mM EDTA pH = 8, 0.1 mg/mL BSA, 1 mM GSH, 200 μM NADPH, 0.008 OD/mL yeast GR and 1 μM hGrx1 when required. Only results for MSA are shown, as compounds 5 and 15 were not reduced.

The subject of data set [12] is glutathione-glutaredoxin (GSH-Grx) system. The data set is described as follows: Glutaredoxin/glutathione assay (NADPH consumption). Format: biochemical. To be noted: 1 mM GSH, 200 μM NADPH, yeast GR, 1 μM hGrx1 when required, 45 min. The procedure: The assay was performed as previously described, with minor modifications and adapted for a 96-well plate. A mixture of 0.1 M Tris pH 8, 2 mM EDTA pH = 8, 0.1 mg/mL BSA, 1 mM GSH, 200 μM NADPH, and 0.008 OD/mL yeast GR was prepared (all reagents were purchased from Sigma-Aldrich). Reactions were performed with 1 μM hGrx1 (IMCO Corporation, Stockholm, Sweden) when corresponding and different concentrations of the compounds. A 100 μL mixture was added, and the final volume was adjusted to 110 μL per well. Consumption of NADPH was monitored at A340 on a VersaMax microplate reader (Molecular Devices) for 45 min.
as §4

The mark [13] stands for this setting: MTT, read-out: LC50 (the source's name).
Setting [14] is: read-out: LC50 (the source's name).

Take `C[Se]C(=O)c1cnccn1` [Compound 3, Methyl pyrazinecarboselenoate]: the “CH3SeH release at 24 h” value in [1] was “completely released”. Also, the CC50 in [2] (72 h, read-out: LC50) was 60.5 ± 4.3 µM; in data set [3] (Homo sapiens, read-out: LC50), 40.1 ± 4.4 µM; in [6] (Homo sapiens, K562, 72 h, read-out: LC50), 87.9 ± 2 µM; in [7] (Homo sapiens, read-out: LC50), over 100 µM; in data set [8] (read-out: LC50), 71.1 ± 3.8 µM. For the same compound, the GI50 (usually the concentration at which growth is held to half of that of the control) was found to be 5.4 ± 1.1 µM in [2] (PC-3, 72 h, MTT); 3.5 ± 0.8 µM in data set [3] (Homo sapiens, MTT); 3.1 ± 0.5 µM in [5] (Homo sapiens); 30.2 ± 2.2 µM in data set [6] (Homo sapiens, K562, K-562, 72 h, MTT); 4.7 ± 0.6 µM in data set [7] (Homo sapiens, MTT); 6.2 ± 1.5 µM in [8] (MTT). The same compound showed a GI50 in data set [10] (Homo sapiens) of 3.6 ± 0.6 µM. The concentration for total growth inhibition (TGI) (commonly the concentration giving total growth inhibition) was found to be 15.3 ± 1.7 µM in [2] (PC-3, 72 h, MTT); 7.2 ± 1.0 µM in data set [3] (MTT); 6.6 ± 0.9 µM in data set [5]; 59.1 ± 2.1 µM in data set [6] (K-562, 72 h, MTT); 9.1 ± 0.8 µM in data set [7] (MTT); 21.1 ± 4.1 µM in data set [8] (MTT). The TGI in data set [10] was determined as 6.1 ± 0.5 µM. Also, the CC50 at 72 h was 17.6 ± 4.4 µM in data set [4] and 8.6 ± 0.5 µM in [9].
Turning to `C[Se](=O)O` [MSA, Methylseleninic acid, reference compound], the GI50 turned out to be 4.4 ± 1.1 µM in data set [2] (PC-3, 72 h, MTT); 1.5 ± 0.5 µM in data set [3] (MTT); 5.3 ± 1.2 µM in data set [5]; 3.5 ± 0.1 µM in data set [8] (MTT); 3.7 ± 0.7 µM in [10]. In addition, the concentration for total growth inhibition (TGI) in data set [2] (PC-3, 72 h, MTT) was 8.5 ± 2.4 µM; in data set [3] (MTT) it was 5.4 ± 0.5 µM; in [5], 9.2 ± 1.3 µM; in data set [8] (MTT), 6.9 ± 0.2 µM; in [10], 6.2 ± 1.2 µM. In addition, the CC50 in [2] (PC-3, 72 h, MTT, read-out: LC50 (the source's name)) came out at 47.6 ± 4.6 µM; in [3] (setting [13]) it was 9.4 ± 1 µM; in data set [5] (setting [14]) it was 13.1 ± 1.3 µM; in [8] (setting [13]) it was 19.9 ± 1.2 µM; in [10] (setting [14]) it was 8.7 ± 1.8 µM. For the same compound, in [11], the “reduction by TrxR1 (NADPH consumption)” value was “consistently reduced”. Further, the “reduction by GSH in the presence or absence of glutaredoxin (NADPH consumption)” value in data set [12] is given as “consistently reduced”.
